Measurements as given in patent publication US9237747B2, “Herbicidal compositions comprising 4-amino-3-chloro-5-fluoro-6-(4-chloro-2-fluoro-3-methoxyphenyl) pyridine-2-carboxylic acid or a derivative thereof and insecticides” (priority 2013, dated 2016).
Read-outs that look alike come from different tables or passages of the source.

What was measured:
LEFFA = assay: Postemergence foliar-applied weed control, direct-seeded rice (greenhouse); assay type: in vivo, Leptochloa fascicularis; conditions: 22 DAA
From the text: (§1) Seeds or nutlets of the desired test plant species were planted in a soil matrix prepared by mixing a loam or sandy loam soil (e.g., 28.6 percent silt, 18.8 percent clay, and 52.6 percent sand, with a pH of about 5.8 and an organic matter content of about 1.8 percent) and calcareous grit in an 80 to 20 ratio. The soil matrix was contained in plastic pots with a volume of 1 quart and a surface area of 83.6 square centimeters (cm^2). When required to ensure good germination and healthy plants, a fungicide treatment and/or other chemical or physical treatment was applied. The plants were grown for 8-22 days in a greenhouse with an approximate 14 hour (h) photoperiod which was maintained at about 29° C. during the day and 26° C. during the night. Nutrients (Peters Excel® 15-5-15 5-Ca 2-Mg and iron chelate) were applied in the irrigation solution as needed and water was added on a regular basis. Supplemental lighting was provided with overhead metal halide 1000-Watt lamps as necessary. The plants were employed for testing when they reached the first through fourth true leaf stage.
(§2) Treatments consisted of the acid or esters of 4-amino-3-chloro-6-(4-chloro-2-fluoro-3-methoxyphenyl)-5-fluoropyridine-2-carboxylic acid (Compound A), each formulated as an SC (suspension concentrate), and various insecticidal components alone and in combination. Forms of compound A were applied on an acid equivalent basis.
(§3) Treatment requirements were calculated based upon the rates being tested, the concentration of active ingredient or acid equivalent in the formulation, and a 12 milliliter (mL) application volume at a rate of 187 liters per hectare (L/ha).
(§4) For treatments comprised of formulated compounds, measured amounts of compounds were placed individually in 25 mL glass vials and diluted in a volume of 1.25% volume per volume (v/v) Agri-Dex® crop oil concentrate to obtain 12× stock solutions. […] Application solutions were prepared by adding an appropriate amount of each stock solution (e.g., 1 mL) and diluted to the appropriate final concentrations with the addition of […] of an aqueous mixture of 1.25% (v/v) crop oil concentrate so that the final spray solutions contained 1.25+/−0.05% (v/v) crop oil concentrate.
(§5) As required, additional water and/or 97:3 v/v acetone/DMSO was added to individual application solutions so that the final acetone and DMSO concentrations of the application solutions being compared were 8.1% and 0.25%, respectively.
(§6) All stock solutions and applications solutions were visually inspected for compound compatibility prior to application. Spray solutions were applied to the plant material with an overhead Mandel track sprayer equipped with 8002E nozzles calibrated to deliver 187 L/ha over an application area of 0.503 square meters (m^2) at a spray height of 18 to 20 inches (46 to 50 cm) above average plant canopy height. Control plants were sprayed in the same manner with the solvent blank.
(§7) The treated plants and control plants were placed in a greenhouse as described above and watered by sub-irrigation to prevent wash-off of the test compounds. After approximately 3 weeks, the condition of the test plants as compared to that of the untreated plants was determined visually and scored on a scale of 0 to 100 percent where 0 corresponds to no injury or growth inhibition and 100 corresponds to complete kill.
(§8) Colby's equation was used to determine the herbicidal effects expected from the mixtures (Colby, S. R. Calculation of the synergistic and antagonistic response of herbicide combinations. Weeds 1967, 15, 20-22.).
(§9) The following equation was used to calculate the expected activity of mixtures containing two active ingredients, A and B: Expected=A+B−(A×B/100)

DIGSA = assay type: in vivo, Digitaria sanguinalis; conditions: 22 DAA
Procedure: as §1, with “When required to ensure good germination and healthy plants, a fungicide treatment and/or other chemical or physical treatment was applied.” left out
as §2, §4, §5, §6, §7, §8, §9

ECHCG = assay type: in vivo, Echinochloa crus-galli; conditions: 22 DAA
Procedure: as §1, with “When required to ensure good germination and healthy plants, a fungicide treatment and/or other chemical or physical treatment was applied.” left out
as §2, §4, §5, §6, §7, §8, §9

LEFPA = assay: Postemergence foliar-applied weed control, direct-seeded rice (greenhouse); assay type: in vivo, Leptochloa panicoides
From the text: as §1, §2, §3, §4, §5, §6, §7, §8, §9

LEFCH = assay: whole plant or invertebrate; assay type: in vivo, Leptochloa chinensis; conditions: Dinebra chinensis, post-emergence, 528 h, 22 DAA, read-out: Visual Weed Control (%) - 22 DAA LEFCH Obs; for pest or weed control at 140 g/ha: 140 g ai/ha alone; for pest or weed control at 280 g/ha: 280 g ai/ha alone; for pest or weed control at 560 g/ha: 560 g ai/ha alone
Procedure: as §1, with “When required to ensure good germination and healthy plants, a fungicide treatment and/or other chemical or physical treatment was applied.” left out
as §2, §4, §5, §6, §7, §8, §9

CCOC(=O)CC(SP(=S)(OC)OC)C(=O)OCC (stereo not drawn) [Malathion, S-1,2-bis(ethoxycarbonyl)ethyl O,O-dimethyl phosphorodithioate]
0%: Visual Weed Control (%) - 22 DAA LEFFA Obs (LEFFA; 140 g ai/ha alone) | Visual Weed Control (%) - 22 DAA LEFFA Obs (LEFFA; 280 g ai/ha alone) | Visual Weed Control (%) - 22 DAA LEFFA Obs (LEFFA; 560 g ai/ha alone) | Visual Weed Control (%) - 22 DAA DIGSA Obs (DIGSA; 140 g ai/ha alone) | Visual Weed Control (%) - 22 DAA DIGSA Obs (DIGSA; 140 g ai/ha alone, second part of Table 18) | Visual Weed Control (%) - 22 DAA DIGSA Obs (DIGSA; 280 g ai/ha alone) | Visual Weed Control (%) - 22 DAA DIGSA Obs (DIGSA; 280 g ai/ha alone, second part of Table 18) | Visual Weed Control (%) - 22 DAA DIGSA Obs (DIGSA; 560 g ai/ha alone) | Visual Weed Control (%) - 22 DAA DIGSA Obs (DIGSA; 560 g ai/ha alone, second part of Table 18) | Visual Weed Control (%) - 22 DAA ECHCG Obs (ECHCG; 140 g ai/ha alone) | Visual Weed Control (%) - 22 DAA ECHCG Obs (ECHCG; 280 g ai/ha alone) | Visual Weed Control (%) - 22 DAA ECHCG Obs (ECHCG; 560 g ai/ha alone) | Visual Weed Control (%) - 22 DAA LEFPA Obs (LEFPA; 140 g ai/ha alone) | Visual Weed Control (%) - 22 DAA LEFPA Obs (LEFPA; 280 g ai/ha alone) | Visual Weed Control (%) - 22 DAA LEFPA Obs (LEFPA; 560 g ai/ha alone) | pest or weed control at 140 g/ha (LEFCH) | pest or weed control at 140 g/ha (LEFCH; second part of Table 18) | pest or weed control at 280 g/ha (LEFCH) | pest or weed control at 280 g/ha (LEFCH; second part of Table 18) | pest or weed control at 560 g/ha (LEFCH) | pest or weed control at 560 g/ha (LEFCH; second part of Table 18)
